The record followed here is ChEMBL document CHEMBL5291721, “A preclinical secondary pharmacology resource illuminates target-adverse drug reaction associations of marketed drugs” (Nat Commun, 2023).

SMILES strings stand for the structures. Bounds are passed on as bounds.

Usually AC50 stands for the concentration giving half of the maximal activity seen.

For assay [1], the target named is T1, Androgen receptor (Homo sapiens, UniProt P10275).
T1 sequence (P10275 whole entry): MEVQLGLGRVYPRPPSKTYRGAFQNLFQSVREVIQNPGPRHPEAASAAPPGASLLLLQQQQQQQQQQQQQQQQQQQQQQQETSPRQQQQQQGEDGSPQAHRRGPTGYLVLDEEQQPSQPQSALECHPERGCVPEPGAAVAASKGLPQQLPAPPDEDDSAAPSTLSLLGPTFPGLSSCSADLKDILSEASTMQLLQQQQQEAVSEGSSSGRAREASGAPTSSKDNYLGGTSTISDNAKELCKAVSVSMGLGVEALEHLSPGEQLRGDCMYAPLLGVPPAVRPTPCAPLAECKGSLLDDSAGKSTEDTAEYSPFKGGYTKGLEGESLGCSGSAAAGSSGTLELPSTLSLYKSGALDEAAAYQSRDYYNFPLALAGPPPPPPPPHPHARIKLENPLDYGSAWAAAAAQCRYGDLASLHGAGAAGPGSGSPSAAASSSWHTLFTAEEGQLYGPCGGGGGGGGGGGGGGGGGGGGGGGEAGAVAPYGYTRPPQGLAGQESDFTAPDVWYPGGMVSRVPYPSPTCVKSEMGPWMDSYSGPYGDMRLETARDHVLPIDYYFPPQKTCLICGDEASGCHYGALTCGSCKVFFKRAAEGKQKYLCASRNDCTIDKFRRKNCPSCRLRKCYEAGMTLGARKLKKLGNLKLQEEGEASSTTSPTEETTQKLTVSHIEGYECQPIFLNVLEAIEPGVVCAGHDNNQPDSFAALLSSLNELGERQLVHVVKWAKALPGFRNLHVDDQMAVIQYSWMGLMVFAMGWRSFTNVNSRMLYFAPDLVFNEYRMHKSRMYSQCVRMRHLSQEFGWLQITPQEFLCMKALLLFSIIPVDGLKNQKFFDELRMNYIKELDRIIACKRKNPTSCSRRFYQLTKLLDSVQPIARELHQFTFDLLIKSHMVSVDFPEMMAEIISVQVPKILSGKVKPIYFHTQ

Assay [2] concerns the target Beta-3 adrenergic receptor (Homo sapiens, UniProt P13945).
Assay [3] concerns the target T2, Androgen receptor (Rattus norvegicus, UniProt P15207).
T2 sequence (P15207 whole entry): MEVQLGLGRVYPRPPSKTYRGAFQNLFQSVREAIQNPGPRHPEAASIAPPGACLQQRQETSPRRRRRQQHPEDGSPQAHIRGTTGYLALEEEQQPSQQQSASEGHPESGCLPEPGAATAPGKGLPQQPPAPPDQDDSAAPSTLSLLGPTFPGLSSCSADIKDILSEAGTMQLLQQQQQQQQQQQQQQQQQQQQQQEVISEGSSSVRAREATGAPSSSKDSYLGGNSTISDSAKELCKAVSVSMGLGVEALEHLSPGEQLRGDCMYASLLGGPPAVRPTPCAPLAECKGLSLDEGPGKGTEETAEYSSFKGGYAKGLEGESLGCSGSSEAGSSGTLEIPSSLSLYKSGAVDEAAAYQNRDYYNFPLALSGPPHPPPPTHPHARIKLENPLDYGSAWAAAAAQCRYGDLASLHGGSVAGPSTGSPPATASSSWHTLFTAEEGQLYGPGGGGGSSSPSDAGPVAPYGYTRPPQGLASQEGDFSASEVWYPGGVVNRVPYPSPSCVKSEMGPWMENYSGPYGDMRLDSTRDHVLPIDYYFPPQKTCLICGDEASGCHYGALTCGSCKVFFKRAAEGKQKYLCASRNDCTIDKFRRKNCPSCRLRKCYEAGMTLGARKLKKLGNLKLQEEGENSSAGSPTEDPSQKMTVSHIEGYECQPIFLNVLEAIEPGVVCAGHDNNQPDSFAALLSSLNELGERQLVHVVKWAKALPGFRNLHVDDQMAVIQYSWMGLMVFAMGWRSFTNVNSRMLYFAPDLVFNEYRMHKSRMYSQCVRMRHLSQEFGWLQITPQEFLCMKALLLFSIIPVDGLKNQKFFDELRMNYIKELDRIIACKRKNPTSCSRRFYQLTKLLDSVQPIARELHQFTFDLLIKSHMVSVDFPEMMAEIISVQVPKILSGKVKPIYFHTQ

The target of a further assay is Estrogen receptor beta (Homo sapiens, UniProt Q92731).
Sequence of Estrogen receptor beta (Q92731 whole entry): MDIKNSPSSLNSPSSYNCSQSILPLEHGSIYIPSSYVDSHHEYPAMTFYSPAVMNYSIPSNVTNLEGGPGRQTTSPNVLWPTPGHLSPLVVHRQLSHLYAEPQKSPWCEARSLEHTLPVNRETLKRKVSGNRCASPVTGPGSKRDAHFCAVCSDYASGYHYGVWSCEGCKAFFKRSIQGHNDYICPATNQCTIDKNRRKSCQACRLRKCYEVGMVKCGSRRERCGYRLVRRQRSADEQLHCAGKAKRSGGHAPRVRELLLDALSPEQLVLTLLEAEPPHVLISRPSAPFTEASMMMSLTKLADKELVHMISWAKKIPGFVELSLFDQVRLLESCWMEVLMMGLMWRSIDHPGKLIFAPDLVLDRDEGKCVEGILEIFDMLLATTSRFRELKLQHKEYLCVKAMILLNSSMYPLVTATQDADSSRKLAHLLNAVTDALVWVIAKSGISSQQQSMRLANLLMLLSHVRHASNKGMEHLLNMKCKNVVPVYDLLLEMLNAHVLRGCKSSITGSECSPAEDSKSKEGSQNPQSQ
Another assay deals with Substance-P receptor (Homo sapiens, UniProt P25103).
Sequence of Substance-P receptor (P25103 whole entry): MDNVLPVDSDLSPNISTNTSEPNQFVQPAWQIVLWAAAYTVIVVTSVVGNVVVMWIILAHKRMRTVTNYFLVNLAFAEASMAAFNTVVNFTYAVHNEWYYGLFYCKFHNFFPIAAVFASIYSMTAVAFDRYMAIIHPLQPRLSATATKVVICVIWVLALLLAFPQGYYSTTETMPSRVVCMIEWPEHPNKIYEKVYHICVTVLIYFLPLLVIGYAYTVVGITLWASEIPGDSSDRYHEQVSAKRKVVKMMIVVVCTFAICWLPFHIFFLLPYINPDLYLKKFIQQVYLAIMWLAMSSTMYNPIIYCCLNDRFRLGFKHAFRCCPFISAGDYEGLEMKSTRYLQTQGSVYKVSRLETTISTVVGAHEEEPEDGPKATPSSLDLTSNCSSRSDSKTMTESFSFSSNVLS
In assay [4] the target is T3, Alpha-1A adrenergic receptor (Homo sapiens, UniProt P35348).
T3 sequence (P35348 whole entry): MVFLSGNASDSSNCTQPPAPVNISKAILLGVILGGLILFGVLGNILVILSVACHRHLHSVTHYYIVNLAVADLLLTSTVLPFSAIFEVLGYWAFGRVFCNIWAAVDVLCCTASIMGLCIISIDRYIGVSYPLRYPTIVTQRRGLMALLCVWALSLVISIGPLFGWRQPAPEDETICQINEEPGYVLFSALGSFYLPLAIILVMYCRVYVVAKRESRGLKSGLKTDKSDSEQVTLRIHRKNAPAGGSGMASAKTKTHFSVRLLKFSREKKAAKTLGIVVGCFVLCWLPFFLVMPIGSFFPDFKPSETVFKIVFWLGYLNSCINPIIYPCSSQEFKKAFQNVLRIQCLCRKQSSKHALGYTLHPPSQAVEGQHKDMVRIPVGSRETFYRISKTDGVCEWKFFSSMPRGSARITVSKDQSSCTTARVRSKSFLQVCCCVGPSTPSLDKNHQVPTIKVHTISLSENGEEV

The target in the next assay is T4, D(4) dopamine receptor (Homo sapiens, UniProt P21917).
T4 sequence (P21917 whole entry): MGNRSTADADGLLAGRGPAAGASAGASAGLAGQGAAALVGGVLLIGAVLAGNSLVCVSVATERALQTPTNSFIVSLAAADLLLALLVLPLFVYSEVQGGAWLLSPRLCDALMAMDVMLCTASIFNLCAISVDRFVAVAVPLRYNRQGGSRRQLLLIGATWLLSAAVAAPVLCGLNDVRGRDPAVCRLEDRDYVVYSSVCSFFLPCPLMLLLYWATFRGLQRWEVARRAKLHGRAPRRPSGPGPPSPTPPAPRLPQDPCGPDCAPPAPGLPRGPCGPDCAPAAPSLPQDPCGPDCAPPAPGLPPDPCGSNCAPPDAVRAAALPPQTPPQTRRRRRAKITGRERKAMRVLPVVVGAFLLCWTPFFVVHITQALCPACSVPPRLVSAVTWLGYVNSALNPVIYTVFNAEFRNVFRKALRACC
Further: assay procedure not described here.

Sequence of Beta-3 adrenergic receptor (P13945 whole entry): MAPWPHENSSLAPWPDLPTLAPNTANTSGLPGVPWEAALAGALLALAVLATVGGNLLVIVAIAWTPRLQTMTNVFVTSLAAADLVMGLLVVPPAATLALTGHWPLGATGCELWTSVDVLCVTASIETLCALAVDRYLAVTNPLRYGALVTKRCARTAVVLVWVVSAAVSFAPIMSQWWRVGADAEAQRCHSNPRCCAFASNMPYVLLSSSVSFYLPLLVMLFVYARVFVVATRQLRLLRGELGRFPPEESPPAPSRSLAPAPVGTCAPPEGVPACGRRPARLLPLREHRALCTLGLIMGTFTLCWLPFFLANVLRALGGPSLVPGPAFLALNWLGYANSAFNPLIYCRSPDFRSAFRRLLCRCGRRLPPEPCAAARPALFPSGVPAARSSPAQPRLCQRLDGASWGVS

Consider `CC(C)N(CCNC(=O)CN1CCCC1=O)C(C)C`, for which the AC50 on Androgen receptor [1] is more than 30 µM.
As for `CCC[C@H](NC(=O)[C@@H]1[C@H]2CCC[C@H]2CN1C(=O)[C@@H](NC(=O)[C@@H](NC(=O)c1cnccn1)C1CCCCC1)C(C)(C)C)C(=O)C(=O)NC1CC1`, the AC50 (in assay [2]; at Androgen receptor [3]) was more than 30 µM in each case.
Take `CC(C)COCC(CN(Cc1ccccc1)c1ccccc1)N1CCCC1` (stereo not drawn) [BEPRIDIL]: the AC50 was more than 30 µM on Estrogen receptor beta and 11.9 µM in assay [2].
In the case of `COc1cc(N2CCC(N3CCN(C)CC3)CC2)ccc1Nc1ncc(Cl)c(Nc2ccccc2P(C)(C)=O)n1` [BRIGATINIB], on Androgen receptor [1], the AC50 is more than 30 µM.
On the same count and under the same terms, the result for `CN(C)CCOC(c1ccccc1)c1ccc(Br)cc1` (stereo not drawn) [BROMODIPHENHYDRAMINE] reads more than 30 µM.
In turn, `CC1OC2(CS1)CN1CCC2CC1` (stereo not drawn) [CEVIMELINE] yielded an AC50 at Androgen receptor [3] of more than 10 µM.
Same read-out and setting: then `CNC1=Nc2ccc(Cl)cc2C(c2ccccc2)=[N+]([O-])C1` [CHLORDIAZEPOXIDE], with more than 30 µM.
As to `O=C(O)c1cn(C2CC2)c2cc(N3CCNCC3)c(F)cc2c1=O` [CIPROFLOXACIN], the values for the AC50 at Substance-P receptor and on Estrogen receptor beta were more than 10 µM and more than 30 µM, respectively.
Take `CC(CCc1ccc(O)cc1)NCCc1ccc(O)c(O)c1` (stereo not drawn) [DOBUTAMINE]: the AC50 in assay [4] was 0.0704 µM; on Substance-P receptor it was more than 10 µM; at Estrogen receptor beta it was more than 30 µM; in assay [2], more than 30 µM; at D(4) dopamine receptor, 2.42 µM.
As for `CCC(=O)O[C@]1(C(=O)SCF)[C@H](C)C[C@H]2[C@@H]3C[C@H](F)C4=CC(=O)C=C[C@]4(C)[C@@]3(F)[C@@H](O)C[C@@]21C` [FLUTICASONE PROPIONATE], the AC50 in assay [4] is more than 10 µM; at Substance-P receptor, more than 10 µM; in assay [2], more than 30 µM; on D(4) dopamine receptor, more than 10 µM.
As to `Cc1cnc(C(=O)NCCc2ccc(S(=O)(=O)NC(=O)NC3CCCCC3)cc2)cn1` [GLIPIZIDE], the AC50 in assay [4] is more than 10 µM; at Substance-P receptor it was more than 10 µM; on Estrogen receptor beta, more than 30 µM; in assay [2], more than 30 µM; on D(4) dopamine receptor, more than 10 µM.
On to `CCC1(c2ccccc2)CCC(=O)NC1=O` (stereo not drawn) [GLUTETHIMIDE], for which the AC50 at Androgen receptor [3] was more than 10 µM.
With `CC(C)NCC(O)c1ccc(O)c(O)c1` (stereo not drawn) [ISOPROTERENOL], the AC50 on Substance-P receptor is more than 10 µM; at Estrogen receptor beta, more than 30 µM; on D(4) dopamine receptor it was more than 10 µM.
Regarding `CN1CCN(C2=Nc3ccccc3Oc3ccc(Cl)cc32)CC1` [LOXAPINE], the AC50 in assay [4] is 0.169 µM; at Substance-P receptor, more than 10 µM; on Estrogen receptor beta, more than 30 µM; in assay [2], more than 30 µM; at D(4) dopamine receptor it was 0.0144 µM.
Regarding `OC1(c2ccc(Cl)cc2)c2ccccc2C2=NCCN21` (stereo not drawn) [MAZINDOL], the AC50 in assay [4] is more than 10 µM; on Substance-P receptor, more than 10 µM; on Estrogen receptor beta, more than 30 µM; in assay [2] it was more than 30 µM; on Androgen receptor [3], more than 30 µM; on D(4) dopamine receptor, more than 10 µM.
Take `CC12CC3CC(C)(C1)CC(N)(C3)C2` [MEMANTINE]: the AC50 at Estrogen receptor beta was more than 30 µM; in assay [2], 20.1 µM.
For `CCOC(=O)C1=C(C)NC(C)=C(C(=O)OC)C1c1cccc([N+](=O)[O-])c1` (stereo not drawn) [NITRENDIPINE], in that order: more than 30 µM and 15.1 µM.
Consider `CCCc1nc(C(C)(C)O)c(C(=O)O)n1Cc1ccc(-c2ccccc2-c2nnn[nH]2)cc1` [OLMESARTAN], for which the AC50 on Androgen receptor [1] was more than 30 µM.
In the case of `[H]/N=C(/N)N/C(=N/[H])NCCc1ccccc1` [PHENFORMIN], the half-maximal activity concentration (AC50) (on Estrogen receptor beta; in assay [2]) was more than 30 µM throughout.
Turning to `NCC(CC(=O)O)c1ccccc1` (stereo not drawn) [PHENIBUT], the AC50 on Androgen receptor [1] is more than 30 µM.
As to `CC(N)C(O)c1ccccc1` (stereo not drawn) [PHENYLPROPANOLAMINE], the AC50 in assay [4] is more than 10 µM; at Substance-P receptor it was more than 10 µM; in assay [2] it was more than 30 µM; at D(4) dopamine receptor, more than 10 µM.
For the compound `c1ccc2c(c1)CCc1ccccc1N2C1CN2CCC1CC2` (stereo not drawn) [QUINUPRAMINE], the AC50 at Androgen receptor [1] is more than 30 µM.
Turning to `CNCc1ccc(-c2[nH]c3cc(F)cc4c3c2CCNC4=O)cc1` [RUCAPARIB], the half-maximal activity concentration (AC50) on Androgen receptor [3] was more than 30 µM.
For `C[C@H](Cc1cc2c(c(C(N)=O)c1)N(CCCO)CC2)NCCOc1ccccc1OCC(F)(F)F` [SILODOSIN], the AC50 on Androgen receptor [1] was more than 30 µM.
On the same count and under the same terms, then `CC1=CCC(C(C)(C)O)CC1O` (stereo not drawn) [SOBREROL], with more than 30 µM; and `CCOC(=O)N1CSC[C@H]1C(=O)O` [TELMESTEINE], with more than 30 µM.
At Androgen receptor [3], `CCC(=O)O[C@H]1CC[C@H]2[C@@H]3CCC4=CC(=O)CC[C@]4(C)[C@H]3CC[C@]12C` [TESTOSTERONE PROPIONATE] gave an AC50 of 1.7 µM.
